In patent publication US20070225171A1 (priority 2001, published 2007):
Read-outs that look alike come from different tables or passages of the source.

Columns and labels:
[1] = test system: Plants expressing the dioxygenase encoded by the tfdA gene; conditions: reported in Llewellyn and Last 1996 and U.S. Pat. Nos. 6,100,446 and 6,153,401; cited from earlier work
[2] = test system: Transgenic cotton plants (transformed with tfdA gene); assay: Seed cotton yield after spraying 2,4-D amine on transgenic cotton; assay type: in vivo; conditions: for SEED COTTON YIELD: herbicide rate 1 lb/acre, average of 4 replications
Procedure: Transgenic cotton plants (transformed as described in Bayley et al., Theor. Appl. Genet., 83:645-649 (1992)) were grown from transgenic seed obtained from USDA, Lubbock, Tex. The cotton plants were sprayed with 2,4-D amine at 1 lb of active ingredient per acre.

[3] = test system: Plants expressing the dioxygenase encoded by the tfdA gene; assay: Herbicide tolerance of plants expressing the tfdA dioxygenase; assay type: in vivo; conditions: at lower levels of herbicide than for 2,4-D; data not shown
From the text: See, e.g., Llewellyn and Last, in Herbicide-Resistant Crops Chapter 10, pages 159-174 (Duke, ed., CRC Lewis Publishers 1996). Preferably, additional bacterial codons of the tfdA coding sequence are replaced by plant-preferred codons to obtain better expression of the encoded dioxygenase. […] See, e.g., Llewellyn and Last, in Herbicide-Resistant Crops Chapter 10, pages 159-174 (Duke, ed., CRC Lewis Publishers 1996) and U.S. Pat. Nos. 6,100,446 and 6,153,401.

O=C(O)COc1cc(Cl)c(Cl)cc1Cl [2,4,5-T, 2,4,5-trichlorophenoxyacetic acid]
tolerance of plants to the herbicide [1]: not to be tolerant

CNC.O=C(O)COc1ccc(Cl)cc1Cl [2,4-D amine]
effect on yield of cotton ([2]; 1 lb of active ingredient per acre): significantly increased the yield of cotton | PERCENT INCREASE, AVERAGE ([2]; average of the seven cotton lines, 1 lb/acre vs rate 0): 13.0 | PERCENT INCREASE ([2]; cotton line X-2600, 1 lb/acre vs rate 0): 8.0 | SEED COTTON YIELD ([2]; cotton line X-2600): 2145 Pounds/acre | PERCENT INCREASE ([2]; cotton line X-2603, 1 lb/acre vs rate 0): 7.4 | SEED COTTON YIELD ([2]; cotton line X-2603): 2790 Pounds/acre | PERCENT INCREASE ([2]; cotton line X-2606, 1 lb/acre vs rate 0): 19.5 | SEED COTTON YIELD ([2]; cotton line X-2606): 3067 Pounds/acre | PERCENT INCREASE ([2]; cotton line X-2609, 1 lb/acre vs rate 0): −1.1 | SEED COTTON YIELD ([2]; cotton line X-2609): 2301 Pounds/acre | PERCENT INCREASE ([2]; cotton line X-2614, 1 lb/acre vs rate 0): 33.6 | SEED COTTON YIELD ([2]; cotton line X-2614): 2660 Pounds/acre | PERCENT INCREASE ([2]; cotton line X-2615, 1 lb/acre vs rate 0): 15.3 | SEED COTTON YIELD ([2]; cotton line X-2615): 2380 Pounds/acre | PERCENT INCREASE ([2]; cotton line X-2619, 1 lb/acre vs rate 0): 8.7 | SEED COTTON YIELD ([2]; cotton line X-2619): 2235 Pounds/acre

O=C(O)CCCOc1ccc(Cl)cc1Cl [2,4-DB, 2,4-dichlorophenoxybutyric acid]
tolerance of plants to the herbicide [3]: tolerant

O=C(O)COc1ccc(Cl)cc1 [4-CPA, 4-chlorophenoxyacetic acid]
tolerance of plants to the herbicide [1]: tolerant

Cc1cc(Cl)ccc1OCC(=O)O [MCPA, 2-methyl-4-chlorophenoxyacetic acid]
tolerance of plants to the herbicide [3]: tolerant
